From PubChem BioAssay AID256 (DTP/NCI, 2004)
“And” between values parts separate entries of the source, which are not always exact repeats. Equal values may be shown once. Inconclusive results and toxic doses are left out. How the source made its calls: active means survival T/C of 150% or more; inactive means T/C below 125% in these data.

Test system: CD2F1 mice, L1210 leukemia ip, survival T/C
Assay: NCI In Vivo Anticancer Drug Screen. Data for tumor model L1210 Leukemia (intraperitoneal) in CD2F1 (CDF1) mice
Details: higher = longer survival
Summary of the method: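 Each value reflects a quotient of treated over vehicle control outcomes in mice with a transplanted tumor.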

[1] = endpoint: mean survival time, dose: 100.0 mg/kg/injection, schedule: Q01DX001 (ip), vehicle: saline with Tween-80
[2] = endpoint: mean survival time, dose: 100.0 mg/kg/injection, schedule: Q04DX003 (ip), vehicle: saline with Tween-80
[3] = endpoint: mean survival time, dose: 200.0 mg/kg/injection, schedule: Q01DX001 (ip), vehicle: saline with Tween-80
[4] = endpoint: mean survival time, dose: 200.0 mg/kg/injection, schedule: Q04DX003 (ip), vehicle: saline with Tween-80
[5] = endpoint: mean survival time, dose: 400.0 mg/kg/injection, schedule: Q01DX001 (ip), vehicle: saline with Tween-80
[6] = endpoint: mean survival time, dose: 400.0 mg/kg/injection, schedule: Q04DX003 (ip), vehicle: saline with Tween-80
[7] = endpoint: mean survival time, dose: 100.0 mg/kg/injection, schedule: Q01DX009 (ip), vehicle: saline with Tween-80
[8] = endpoint: mean survival time, dose: 200.0 mg/kg/injection, schedule: Q01DX009 (ip), vehicle: saline with Tween-80
[9] = endpoint: mean survival time, dose: 400.0 mg/kg/injection, schedule: Q01DX009 (ip), vehicle: saline with Tween-80
[10] = endpoint: mean survival time, dose: 50.0 mg/kg/injection, schedule: Q01DX009 (ip), vehicle: saline with Tween-80
[11] = endpoint: mean survival time, dose: 100.0 mg/kg/injection, schedule: Q04DX002 (ip), vehicle: saline with Tween-80
[12] = endpoint: mean survival time, dose: 200.0 mg/kg/injection, schedule: Q04DX002 (ip), vehicle: saline with Tween-80
[13] = endpoint: mean survival time, dose: 100.0 mg/kg/injection, schedule: Q01DX009 (ip), vehicle: saline
[14] = endpoint: mean survival time, dose: 200.0 mg/kg/injection, schedule: Q01DX009 (ip), vehicle: saline
[15] = endpoint: mean survival time, dose: 50.0 mg/kg/injection, schedule: Q04DX002 (ip), vehicle: saline with Tween-80

Measured: T/C

C(=N\N=C\c1ccccc1)/c1ccccc1
inactive: [1] 100 % of control | [2] 103 % of control | [3] 100 % of control | [4] 91 % of control | [5] 97 % of control | [6] 96 % of control

O=C1CSC(=S)N1/N=C/c1ccccc1Cl
inactive: endpoint: mean survival time, dose: 75.0 mg/kg/injection, schedule: Q01DX001 (ip), vehicle: other 96 % of control | endpoint: mean survival time, dose: 150.0 mg/kg/injection, schedule: Q01DX001 (ip), vehicle: other 96 % of control | endpoint: mean survival time, dose: 300.0 mg/kg/injection, schedule: Q01DX001 (ip), vehicle: other 94 % of control

FC(F)(F)/C([S-])=C(/[S-])C(F)(F)F.FC(F)(F)/C([S-])=C(/[S-])C(F)(F)F.FC(F)(F)/C([S-])=C(/[S-])C(F)(F)F.FC(F)(F)/C([S-])=C(/[S-])C(F)(F)F.[Co+3].[Co+3]
inactive: endpoint: mean survival time, dose: 12.5 mg/kg/injection, schedule: Q04DX003 (ip), vehicle: other 95 % of control | endpoint: mean survival time, dose: 25.0 mg/kg/injection, schedule: Q04DX003 (ip), vehicle: other 95 % of control | endpoint: mean survival time, dose: 50.0 mg/kg/injection, schedule: Q04DX003 (ip), vehicle: other 98 % of control

CCCCCC(CC)OC(=O)Nc1cccc2ccccc12 (stereo not given)
inactive: [2] 89 % of control | [4] 101 % of control | [6] 100 % of control

Cc1cc(Cl)ccc1OCC(=O)Nc1nc(N)nc(N)n1
inactive: [7] 105 % of control | [2] 89 % of control | [8] 102 % of control | [4] 90 % of control | [9] 100 % of control | [6] 101 % of control

O=C(O)C(NC1CCCCC1)c1ccccc1 (stereo not given)
inactive: [10] 95 % of control | [7] 103 % of control | [2] 92 % of control | [8] 92 % of control | [4] 93 % of control

CCCC(=O)O.CCCC(=O)O.CCCC(=O)O.CCCC(=O)O.O=P1(N(CCCl)CCCl)NCCCO1.O=P1(N(CCCl)CCCl)NCCCO1.[Rh].[Rh] (stereo not given)
inactive: endpoint: median survival time, dose: 0.13 mg/kg/injection, schedule: Q01DX001 (ip), vehicle: olive oil, sesame oil, peanut oil 101 % of control | endpoint: median survival time, dose: 0.25 mg/kg/injection, schedule: Q01DX001 (ip), vehicle: olive oil, sesame oil, peanut oil 102 % of control | endpoint: median survival time, dose: 0.5 mg/kg/injection, schedule: Q01DX001 (ip), vehicle: olive oil, sesame oil, peanut oil 103 % of control | endpoint: median survival time, dose: 1.0 mg/kg/injection, schedule: Q01DX001 (ip), vehicle: olive oil, sesame oil, peanut oil 95 % of control | endpoint: median survival time, dose: 2.0 mg/kg/injection, schedule: Q01DX001 (ip), vehicle: olive oil, sesame oil, peanut oil 102 % of control

CC(=O)N1NC2C(=O)N(C3CCCCC3)CC2C1c1ccccc1 (stereo not given)
inactive: [7] 93 % of control | [8] 100 % of control | [9] 93 % of control

COc1cc(C2=N/C(=C\c3ccc(Cl)c(Cl)c3)C(=O)O2)cc(OC)c1OC
inactive: [11] 114 % of control | [12] 95 % of control | endpoint: mean survival time, dose: 400.0 mg/kg/injection, schedule: Q04DX002 (ip), vehicle: saline with Tween-80 100 % of control

OCC1OC(n2cnc3c2nnn2ccnc32)C(O)C1O (stereo not given)
inactive: [13] 112 % of control | [14] 106 % of control | endpoint: mean survival time, dose: 400.0 mg/kg/injection, schedule: Q01DX009 (ip), vehicle: saline 115 % of control

Nc1ccc(-c2c(N)nc(Br)c3ccccc23)cc1
inactive: endpoint: mean survival time, dose: 50.0 mg/kg/injection, schedule: Q04DX003 (ip), vehicle: DMSO 98 % of control | endpoint: mean survival time, dose: 100.0 mg/kg/injection, schedule: Q04DX003 (ip), vehicle: DMSO 93 % of control | endpoint: mean survival time, dose: 200.0 mg/kg/injection, schedule: Q04DX003 (ip), vehicle: DMSO 110 % of control | endpoint: mean survival time, dose: 400.0 mg/kg/injection, schedule: Q04DX003 (ip), vehicle: DMSO 104 % of control

O=C(O)CC1(c2ccccc2)OC(=O)c2ccccc21 (stereo not given)
inactive: [1] 91 % of control | [7] 96 % of control | [3] 94 % of control | [8] 100 % of control | [5] 89 % of control

Nc1ncnc2c1ncn2C1OC(CO)C2[O][Sn]([c]3ccccc3)([c]3ccccc3)[O]C21 (stereo not given)
inactive: endpoint: mean survival time, dose: 1.56 mg/kg/injection, schedule: Q01DX005 (ip), vehicle: other 107 % of control | endpoint: mean survival time, dose: 3.13 mg/kg/injection, schedule: Q01DX005 (ip), vehicle: other 105 % of control | endpoint: mean survival time, dose: 6.25 mg/kg/injection, schedule: Q01DX005 (ip), vehicle: other 100 % of control | endpoint: mean survival time, dose: 12.5 mg/kg/injection, schedule: Q01DX005 (ip), vehicle: other 90 % of control and 107 % of control

O=C1C=CC(=Nc2ccc(Cl)cc2)O1
inactive: [2] 101 % of control | [6] 97 % of control

CC(C)(CCC(=S)N1CCOCC1)C1CCCCC1
inactive: [2] 97 % of control | [4] 96 % of control | [6] 97 % of control

CCOC(=O)C(N=O)C(=O)c1ccccc1 (stereo not given)
inactive: endpoint: mean survival time, dose: 100.0 mg/kg/injection, schedule: Q01DX009 (ip), vehicle: saline sonified 95 % of control | [2] 96 % of control | endpoint: mean survival time, dose: 200.0 mg/kg/injection, schedule: Q01DX009 (ip), vehicle: saline sonified 101 % of control | [4] 95 % of control | endpoint: mean survival time, dose: 400.0 mg/kg/injection, schedule: Q01DX009 (ip), vehicle: saline sonified 92 % of control | [6] 86 % of control

COc1ccc(/C=C/C(=O)Oc2cc(O)cc(O)c2)cc1
inactive: endpoint: mean survival time, dose: 12.5 mg/kg/injection, schedule: Q04DX002 (ip), vehicle: saline with Tween-80 97 % of control | endpoint: mean survival time, dose: 25.0 mg/kg/injection, schedule: Q04DX002 (ip), vehicle: saline with Tween-80 93 % of control | [15] 101 % of control | [3] 94 % of control | [5] 92 % of control

COC(=O)c1ccc(NCC(=N)N)cc1
inactive: endpoint: mean survival time, dose: 50.0 mg/kg/injection, schedule: Q01DX009 (ip), vehicle: saline 100 % of control | [13] 122 % of control | [14] 100 % of control

Cc1cn(C2CC(O)C(COC(c3ccccc3)(c3ccccc3)c3ccc(OCC(=O)O)cc3)O2)c(=O)[nH]c1=O (stereo not given)
inactive: endpoint: mean survival time, dose: 12.5 mg/kg/injection, schedule: Q01DX005 (ip), vehicle: distilled water + Tween-80 100 % of control | endpoint: mean survival time, dose: 25.0 mg/kg/injection, schedule: Q01DX005 (ip), vehicle: distilled water + Tween-80 97 % of control | endpoint: mean survival time, dose: 50.0 mg/kg/injection, schedule: Q01DX005 (ip), vehicle: distilled water + Tween-80 96 % of control | endpoint: mean survival time, dose: 100.0 mg/kg/injection, schedule: Q01DX005 (ip), vehicle: distilled water + Tween-80 102 % of control | endpoint: mean survival time, dose: 200.0 mg/kg/injection, schedule: Q01DX005 (ip), vehicle: distilled water + Tween-80 94 % of control

Cc1oc2ccc(NS(=O)(=O)c3ccccc3)cc2c1C(=O)O
inactive: [2] 97 % of control

CCCCN(c1ccccc1)S(=O)(=O)c1ccc(Br)cc1
inactive: [7] 97 % of control | [2] 98 % of control | [8] 95 % of control | [4] 102 % of control | [9] 97 % of control | [6] 101 % of control

Clc1nc2ccccc2c2ccccc12
inactive: [10] 97 % of control | [7] 94 % of control | [2] 109 % of control | [8] 92 % of control | [4] 111 % of control

CC(=O)C(C(=N)C#N)C(C)=O
inactive: [15] 101 % of control | [11] 89 % of control | [12] 89 % of control

CCOC(=O)C(CCCl)C(=O)OCC
inactive: endpoint: mean survival time, dose: 100.0 mg/kg/injection, schedule: Q01DX001 (ip), vehicle: saline 104 % of control | endpoint: mean survival time, dose: 200.0 mg/kg/injection, schedule: Q01DX001 (ip), vehicle: saline 104 % of control | endpoint: mean survival time, dose: 400.0 mg/kg/injection, schedule: Q01DX001 (ip), vehicle: saline 101 % of control
